Experimental data taken from patent US20020137929A1, “1 - (3-heterocyclylphenyl) isothiourea, -isourea, -guanidine and -amidine herbicidal agents” (Intellectual Property Department, BASF Aktiengesellschaft, priority 1998, published 2002).

Legend:
CASOB (Sicklepod) = experiment: Postemergence herbicidal evaluation; assay type: in vivo, Cassia obtusifolia; settings: postemergence
How it was run: (§1)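 Two-week-old seedlings sprayed with compound in 50/50 acetone/water plus 0.5% TWEEN 20, at about 0.0156 to 0.500 kg/ha, nozzle at 40 psi. Kept in greenhouse; rated visually 4-5 weeks after treatment on a 0-9 scale versus control, repeat tests averaged.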

[1] = test system: CHEAL (Lambsquarters, Common); experiment: Postemergence herbicidal evaluation; assay type: in vivo, Chenopodium album; settings: postemergence
How it was run: as §1

ECHCG (Barnyardgrass) = experiment: Postemergence herbicidal evaluation; assay type: in vivo, Echinochloa crus-galli; settings: postemergence
How it was run: as §1

ORYSAT (Rice, Tebonnet) [2] = experiment: Postemergence herbicidal evaluation; assay type: in vivo, Oryza sativa, (L.) Tebonnet; settings: postemergence
How it was run: as §1

GALAP (Galium) = experiment: Preemergence herbicidal evaluation; assay type: in vivo, Galium aparine; settings: preemergence, rated 4-5 weeks after treatment, 0-9 scale
How it was run: (§2)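 Scores (0–9) reflect visual comparison with control plants for stand, vigor, malformation, size and chlorosis. Compound was applied to the soil after sowing, before emergence, as an aqueous acetone spray (about 0.0156–0.500 kg/ha), and cups were kept in a greenhouse for 4–5 weeks.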

SETVI (Foxtail, Green) = experiment: Preemergence herbicidal evaluation; assay type: in vivo, Setaria viridis; settings: preemergence, rated 4-5 weeks after treatment, 0-9 scale
How it was run: as §2

[3] = test system: GLXMAW (Soybean, Williams); experiment: Preemergence herbicidal evaluation; assay type: in vivo, Glycine max, (L.) Merr. cv Williams; settings: preemergence, rated 4-5 weeks after treatment, 0-9 scale
How it was run: as §2

ORYSAT (Rice, Tebonnet) [4] = experiment: Preemergence herbicidal evaluation; assay type: in vivo, Oryza sativa, (L.) Tebonnet; settings: preemergence, rated 4-5 weeks after treatment, 0-9 scale
How it was run: as §2

[5] = test system: TRZAWR (Wheat, Winter, cv Riband); experiment: Preemergence herbicidal evaluation; assay type: in vivo, Triticum aestivum; settings: preemergence, rated 4-5 weeks after treatment, 0-9 scale
How it was run: as §2

ZEAMX (Corn, Field) = experiment: Preemergence herbicidal evaluation; assay type: in vivo, Zea mays; settings: preemergence, rated 4-5 weeks after treatment, 0-9 scale
How it was run: as §2

CYPIR (Rice Flatsedge) = experiment: Preemergence weed control under flooded paddy conditions; assay type: in vivo, Cyperus iria; settings: rated 3-4 weeks after treatment
How it was run: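 Silt loam, seeds in top 0.5 cm; flood held 1.5-3 cm; test cpd as acetone/water 50/50 into flood water, ~0.0313-0.500 kg/ha a.i.; greenhouse 3-4 wk; visual 0-9 score vs control.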

MOOVA (Monochoria) = experiment: as above; assay type: in vivo, Monochoria vaginalis; settings: rated 3-4 weeks after treatment
How it was run: (§3)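 Flooded-pot preemergence screen with silt loam and seeds in the upper 0.5 cm. Dose about 0.0313 to 0.500 kg/ha, delivered into flood water; visual 0-9 score after 3 to 4 weeks.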

[6] = test system: SAGPY (Arrowhead (Pygmaea)); experiment: as above; assay type: in vivo, Sagittaria pygmaea; settings: rated 3-4 weeks after treatment
How it was run: as §3

CYPSE (Flatsedge) = experiment: Postemergence weed control under flooded paddy conditions; assay type: in vivo, Cyperus serotinus; settings: postemergence weeds, rated 3 to 4 weeks after treatment
How it was run: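 Containers holding 3–5 cm weeds and rice at 1.5–2.5 leaves are flooded to 1.5–3 cm above soil. Compound in 50/50 v/v aqueous/acetone is then added directly to the water, about 0.0313–0.500 kg/ha. Plants are kept in the greenhouse and rated 0–9 visually at 3–4 weeks.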

CN1C(=O)C(CC(=O)NS(=O)(=O)c2ccccc2)SC1=Nc1cc(-n2c(=O)cc(C(F)(F)F)n(C)c2=O)c(F)cc1Cl (stereo not shown) [Compound 102, 2-{{2-Chloro-5-[3,6-dihydro-3-methyl-2,6-dioxo-4-(trifluoromethyl)-1(2H)-pyrimidinyl]-4-fluorophenyl}imino}-3-methyl-4-oxo-N-(phenylsulfonyl)-5-thiazolidineacetamide]
Herbicidal rating CASOB (CASOB (Sicklepod); rate 0.0156 kg/ha): 0.0 | Herbicidal rating CASOB (CASOB (Sicklepod); rate 0.0313 kg/ha): 1.0 | Herbicidal rating CASOB (CASOB (Sicklepod); rate 0.0625 kg/ha): 1.0 | Herbicidal rating CASOB (CASOB (Sicklepod); rate 0.1250 kg/ha): 3.0 | Herbicidal rating CHEAL ([1]; rate 0.0156 kg/ha): 3.0 | Herbicidal rating CHEAL ([1]; rate 0.0313 kg/ha): 4.0 | Herbicidal rating CHEAL ([1]; rate 0.0625 kg/ha): 6.0 | Herbicidal rating CHEAL ([1]; rate 0.1250 kg/ha): 7.0 | Herbicidal rating ECHCG (ECHCG (Barnyardgrass); rate 0.0156 kg/ha): 0.0 | Herbicidal rating ECHCG (ECHCG (Barnyardgrass); rate 0.0313 kg/ha): 1.0 | Herbicidal rating ECHCG (ECHCG (Barnyardgrass); rate 0.0625 kg/ha): 2.0 | Herbicidal rating ECHCG (ECHCG (Barnyardgrass); rate 0.1250 kg/ha): 6.0 | Herbicidal rating ORYSAT (ORYSAT (Rice, Tebonnet) [2]; rate 0.0156 kg/ha): 2.5 | Herbicidal rating ORYSAT (ORYSAT (Rice, Tebonnet) [2]; rate 0.0313 kg/ha): 3.0 | Herbicidal rating ORYSAT (ORYSAT (Rice, Tebonnet) [2]; rate 0.0625 kg/ha): 3.0 | Herbicidal rating ORYSAT (ORYSAT (Rice, Tebonnet) [2]; rate 0.1250 kg/ha): 3.0 | GALAP rating (GALAP (Galium); 0.0156 kg/ha): 0.0 | GALAP rating (GALAP (Galium); 0.0313 kg/ha): 1.0 | GALAP rating (GALAP (Galium); 0.0625 kg/ha): 0.0 | GALAP rating (GALAP (Galium); 0.2500 kg/ha): 1.0 | GALAP rating (GALAP (Galium); 0.5000 kg/ha): 4.0 | SETVI rating (SETVI (Foxtail, Green); 0.0156 kg/ha): 1.0 | SETVI rating (SETVI (Foxtail, Green); 0.0313 kg/ha): 1.0 | SETVI rating (SETVI (Foxtail, Green); 0.0625 kg/ha): 0.0 | SETVI rating (SETVI (Foxtail, Green); 0.2500 kg/ha): 0.0 | SETVI rating (SETVI (Foxtail, Green); 0.5000 kg/ha): 1.0 | GLXMAW rating ([3]; 0.0156 kg/ha): 0.0 | GLXMAW rating ([3]; 0.0313 kg/ha): 0.0 | GLXMAW rating ([3]; 0.0625 kg/ha): 0.0 | GLXMAW rating ([3]; 0.2500 kg/ha): 1.0 | GLXMAW rating ([3]; 0.5000 kg/ha): 4.0 | ORYSAT rating (ORYSAT (Rice, Tebonnet) [4]; 0.0156 kg/ha): 0.0 | ORYSAT rating (ORYSAT (Rice, Tebonnet) [4]; 0.0313 kg/ha): 0.0 | ORYSAT rating (ORYSAT (Rice, Tebonnet) [4]; 0.0625 kg/ha): 0.0 | ORYSAT rating (ORYSAT (Rice, Tebonnet) [4]; 0.2500 kg/ha): 0.0 | ORYSAT rating (ORYSAT (Rice, Tebonnet) [4]; 0.5000 kg/ha): 1.0 | TRZAWR rating ([5]; 0.0156 kg/ha): 0.0 | TRZAWR rating ([5]; 0.0313 kg/ha): 0.0 | TRZAWR rating ([5]; 0.0625 kg/ha): 0.0 | TRZAWR rating ([5]; 0.2500 kg/ha): 0.0 | TRZAWR rating ([5]; 0.5000 kg/ha): 1.0 | ZEAMX rating (ZEAMX (Corn, Field); 0.0156 kg/ha): 0.0 | ZEAMX rating (ZEAMX (Corn, Field); 0.0313 kg/ha): 0.0 | ZEAMX rating (ZEAMX (Corn, Field); 0.0625 kg/ha): 0.0 | ZEAMX rating (ZEAMX (Corn, Field); 0.2500 kg/ha): 0.0 | ZEAMX rating (ZEAMX (Corn, Field); 0.5000 kg/ha): 1.0 | CYPIR herbicidal effect rating (CYPIR (Rice Flatsedge); 0.2500 kg/ha): 2.0 | CYPIR herbicidal effect rating (CYPIR (Rice Flatsedge); 0.5000 kg/ha): 6.0 | MOOVA herbicidal effect rating (MOOVA (Monochoria); 0.2500 kg/ha): 0.0 | MOOVA herbicidal effect rating (MOOVA (Monochoria); 0.5000 kg/ha): 4.0 | SAGPY herbicidal effect rating ([6]; 0.2500 kg/ha): 0.0 | SAGPY herbicidal effect rating ([6]; 0.5000 kg/ha): 0.0 | Herbicidal rating CYPSE (CYPSE (Flatsedge); Rate 0.2500 kg/ha): 0.0 | Herbicidal rating CYPSE (CYPSE (Flatsedge); Rate 0.5000 kg/ha): 0.0

C=CCN1C(=O)C(CC(=O)NS(=O)(=O)CC)SC1=Nc1cc(-n2c(=O)cc(C(F)(F)F)n(C)c2=O)c(F)cc1Cl (stereo not shown) [Compound 104, 3-Allyl-2-{{2-chloro-5-[3,6-dihydro-3-methyl-2,6-dioxo-4-(trifluoromethyl)-1(2H)-pyrimidinyl]-4-fluorophenyl}imino}-N-(ethylsulfonyl)-4-oxo-5-thiazolidineacetamide]
Herbicidal rating CASOB (CASOB (Sicklepod); rate 0.0156 kg/ha): 0.0 | Herbicidal rating CASOB (CASOB (Sicklepod); rate 0.0313 kg/ha): 0.0 | Herbicidal rating CASOB (CASOB (Sicklepod); rate 0.0625 kg/ha): 0.0 | Herbicidal rating CASOB (CASOB (Sicklepod); rate 0.1250 kg/ha): 1.0 | Herbicidal rating CHEAL ([1]; rate 0.0156 kg/ha): 0.0 | Herbicidal rating CHEAL ([1]; rate 0.0313 kg/ha): 2.0 | Herbicidal rating CHEAL ([1]; rate 0.0625 kg/ha): 4.0 | Herbicidal rating CHEAL ([1]; rate 0.1250 kg/ha): 5.0 | Herbicidal rating ECHCG (ECHCG (Barnyardgrass); rate 0.0156 kg/ha): 0.0 | Herbicidal rating ECHCG (ECHCG (Barnyardgrass); rate 0.0313 kg/ha): 0.0 | Herbicidal rating ECHCG (ECHCG (Barnyardgrass); rate 0.0625 kg/ha): 0.0 | Herbicidal rating ECHCG (ECHCG (Barnyardgrass); rate 0.1250 kg/ha): 3.0 | Herbicidal rating ORYSAT (ORYSAT (Rice, Tebonnet) [2]; rate 0.0156 kg/ha): 0.0 | Herbicidal rating ORYSAT (ORYSAT (Rice, Tebonnet) [2]; rate 0.0313 kg/ha): 0.5 | Herbicidal rating ORYSAT (ORYSAT (Rice, Tebonnet) [2]; rate 0.0625 kg/ha): 1.0 | Herbicidal rating ORYSAT (ORYSAT (Rice, Tebonnet) [2]; rate 0.1250 kg/ha): 2.0 | GALAP rating (GALAP (Galium); 0.0625 kg/ha): 0.0 | GALAP rating (GALAP (Galium); 0.1250 kg/ha): 0.0 | GALAP rating (GALAP (Galium); 0.2500 kg/ha): 0.0 | GALAP rating (GALAP (Galium); 0.5000 kg/ha): 6.0 | SETVI rating (SETVI (Foxtail, Green); 0.0625 kg/ha): 0.0 | SETVI rating (SETVI (Foxtail, Green); 0.1250 kg/ha): 0.0 | SETVI rating (SETVI (Foxtail, Green); 0.2500 kg/ha): 0.0 | SETVI rating (SETVI (Foxtail, Green); 0.5000 kg/ha): 6.0 | GLXMAW rating ([3]; 0.0625 kg/ha): 0.0 | GLXMAW rating ([3]; 0.1250 kg/ha): 0.0 | GLXMAW rating ([3]; 0.2500 kg/ha): 0.0 | GLXMAW rating ([3]; 0.5000 kg/ha): 3.0 | ORYSAT rating (ORYSAT (Rice, Tebonnet) [4]; 0.0625 kg/ha): 0.0 | ORYSAT rating (ORYSAT (Rice, Tebonnet) [4]; 0.1250 kg/ha): 0.0 | ORYSAT rating (ORYSAT (Rice, Tebonnet) [4]; 0.2500 kg/ha): 0.0 | ORYSAT rating (ORYSAT (Rice, Tebonnet) [4]; 0.5000 kg/ha): 0.0 | TRZAWR rating ([5]; 0.0625 kg/ha): 0.0 | TRZAWR rating ([5]; 0.1250 kg/ha): 0.0 | TRZAWR rating ([5]; 0.2500 kg/ha): 0.0 | TRZAWR rating ([5]; 0.5000 kg/ha): 1.0 | ZEAMX rating (ZEAMX (Corn, Field); 0.0625 kg/ha): 0.0 | ZEAMX rating (ZEAMX (Corn, Field); 0.1250 kg/ha): 0.0 | ZEAMX rating (ZEAMX (Corn, Field); 0.2500 kg/ha): 0.0 | ZEAMX rating (ZEAMX (Corn, Field); 0.5000 kg/ha): 2.0 | CYPIR herbicidal effect rating (CYPIR (Rice Flatsedge); 0.0313 kg/ha): 5.0 | CYPIR herbicidal effect rating (CYPIR (Rice Flatsedge); 0.0625 kg/ha): 9.0 | CYPIR herbicidal effect rating (CYPIR (Rice Flatsedge); 0.1250 kg/ha): 9.0 | CYPIR herbicidal effect rating (CYPIR (Rice Flatsedge); 0.2500 kg/ha): 9.0 | MOOVA herbicidal effect rating (MOOVA (Monochoria); 0.0313 kg/ha): 7.0 | MOOVA herbicidal effect rating (MOOVA (Monochoria); 0.0625 kg/ha): 9.0 | MOOVA herbicidal effect rating (MOOVA (Monochoria); 0.1250 kg/ha): 9.0 | MOOVA herbicidal effect rating (MOOVA (Monochoria); 0.2500 kg/ha): 9.0 | SAGPY herbicidal effect rating ([6]; 0.0313 kg/ha): 6.0 | SAGPY herbicidal effect rating ([6]; 0.0625 kg/ha): 9.0 | SAGPY herbicidal effect rating ([6]; 0.1250 kg/ha): 9.0 | SAGPY herbicidal effect rating ([6]; 0.2500 kg/ha): 9.0 | Herbicidal rating CYPSE (CYPSE (Flatsedge); Rate 0.0313 kg/ha): 0.0 | Herbicidal rating CYPSE (CYPSE (Flatsedge); Rate 0.1250 kg/ha): 0.0 | Herbicidal rating CYPSE (CYPSE (Flatsedge); Rate 0.2500 kg/ha): 0.0
